Patent publication US8129371B2, “Thienopyrimidine and pyrazolopyrimidine compounds and their use as mTOR kinase and PI3 kinase inhibitors” (Wyeth LLC, priority 2007, dated 2012)
Like-named read-outs stand apart in the source and are kept apart here.

Columns and labels:
PI3K [1] = biological target: T1, PI3K (Homo sapiens, UniProt P48736); assay: Fluorescence polarization assay for PI3K; type: biochemical; conditions: read-out: PI3 Kinase γ IC50
T1 construct: PI3 Kinase γ IC50; other: PI3 Kinase γ; other: PI3 Kinase γ isoform, fluorescence polarization
T1 sequence (P48736 whole entry, canonical isoform): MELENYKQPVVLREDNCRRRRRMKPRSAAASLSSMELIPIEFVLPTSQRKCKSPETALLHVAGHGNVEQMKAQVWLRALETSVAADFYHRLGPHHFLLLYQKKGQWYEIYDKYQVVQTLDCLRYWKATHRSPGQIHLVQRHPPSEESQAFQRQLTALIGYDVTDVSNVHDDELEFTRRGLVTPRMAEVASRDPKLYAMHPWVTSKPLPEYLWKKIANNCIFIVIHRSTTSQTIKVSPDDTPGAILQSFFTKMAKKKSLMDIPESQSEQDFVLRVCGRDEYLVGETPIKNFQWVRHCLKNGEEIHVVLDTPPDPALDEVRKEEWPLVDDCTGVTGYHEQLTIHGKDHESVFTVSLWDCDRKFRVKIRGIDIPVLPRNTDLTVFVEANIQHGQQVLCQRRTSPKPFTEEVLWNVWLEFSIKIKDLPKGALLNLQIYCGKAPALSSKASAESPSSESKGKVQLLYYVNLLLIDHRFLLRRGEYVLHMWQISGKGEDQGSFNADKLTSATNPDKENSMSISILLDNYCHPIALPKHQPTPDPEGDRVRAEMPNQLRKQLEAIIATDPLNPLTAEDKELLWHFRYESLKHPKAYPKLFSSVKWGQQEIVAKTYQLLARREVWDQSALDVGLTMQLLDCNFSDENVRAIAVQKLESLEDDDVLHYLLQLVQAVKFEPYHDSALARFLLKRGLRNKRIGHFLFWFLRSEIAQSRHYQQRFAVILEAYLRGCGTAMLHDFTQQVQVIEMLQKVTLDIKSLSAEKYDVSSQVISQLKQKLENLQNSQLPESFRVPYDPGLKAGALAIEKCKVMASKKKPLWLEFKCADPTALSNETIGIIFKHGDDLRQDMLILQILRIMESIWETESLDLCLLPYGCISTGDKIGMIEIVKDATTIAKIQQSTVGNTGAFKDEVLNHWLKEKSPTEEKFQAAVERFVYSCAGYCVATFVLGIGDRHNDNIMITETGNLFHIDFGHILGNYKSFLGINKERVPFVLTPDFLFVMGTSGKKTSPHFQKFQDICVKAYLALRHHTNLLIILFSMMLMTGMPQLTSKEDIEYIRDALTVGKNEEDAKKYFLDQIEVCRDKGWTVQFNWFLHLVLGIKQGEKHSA
Protocol: (§1) This assay is used to determine the IC50 of compounds of the present invention as it identifies inhibitors of PI3 kinase by measuring inhibition.
(§2) The assay is run by placing 5 μL of diluted enzyme per well, then 5 μL of diluted compound (or 9.5 μL enzyme then 0.5 μL compound in DMSO) is added and mixed. Then, 10 μL substrate is added to start the reaction. The samples are incubated 30-60 minutes, then the reaction is stopped by adding 20 μL stop/detector mix. PI3K is diluted with reaction buffer (e.g., 5 μL or 7.5 μL PI3K into 620 μL reaction buffer), and 5 μL of diluted enzyme is used per well. 5 μL reaction buffer or drug diluted in buffer (e.g., 4 μL/100 so final DMSO is 1% in reaction) is added to each. Pipetting up and down mixes the samples. Alternatively, the enzyme can be diluted to 1215 μL. In this case 9.8 μL is added per well and 0.2 μL compound is added in DMSO. To prepare 1 mL of substrate solution, 955 μL reaction buffer, 40 μL PIP2, and 2.5 μL ATP are mixed. 10 μL of substrate is added to each well to start the reaction.
(§3) Stop/detector mix is prepared by mixing 4 μL Red detector and 1.6 μL or 2.0 μL GST-GRP with 1 mL Stop buffer, which results in 10 nM probe and 70 nM GST-GRP). 20 μL of the stop/detector mix is added to each well to stop the reaction. The plates are read after 30-90 minutes keeping the red probe solutions dark. For the zero time point, stop/detector mix is added to the enzyme just before adding substrate. For an extra control, stop/detector mix is added to buffer (no enzyme) and substrate or to just buffer (no substrate). […] Plates are read on machines with filters for Tamra. The units are mP with no enzyme controls reading app 190-220 mP units. Fully active enzyme reduces fluorescence polarization down to 70-100 mP after 30 minutes.

PI3K [2] = biological target: T2, PI3K (Homo sapiens, UniProt P42336); assay: Fluorescence polarization assay for PI3K; type: biochemical; conditions: read-out: PI3 Kinase α IC50
T2 construct: PI3 Kinase α IC50; other: PI3 Kinase α; other: PI3 Kinase α isoform, fluorescence polarization
T2 sequence (P42336 whole entry, canonical isoform): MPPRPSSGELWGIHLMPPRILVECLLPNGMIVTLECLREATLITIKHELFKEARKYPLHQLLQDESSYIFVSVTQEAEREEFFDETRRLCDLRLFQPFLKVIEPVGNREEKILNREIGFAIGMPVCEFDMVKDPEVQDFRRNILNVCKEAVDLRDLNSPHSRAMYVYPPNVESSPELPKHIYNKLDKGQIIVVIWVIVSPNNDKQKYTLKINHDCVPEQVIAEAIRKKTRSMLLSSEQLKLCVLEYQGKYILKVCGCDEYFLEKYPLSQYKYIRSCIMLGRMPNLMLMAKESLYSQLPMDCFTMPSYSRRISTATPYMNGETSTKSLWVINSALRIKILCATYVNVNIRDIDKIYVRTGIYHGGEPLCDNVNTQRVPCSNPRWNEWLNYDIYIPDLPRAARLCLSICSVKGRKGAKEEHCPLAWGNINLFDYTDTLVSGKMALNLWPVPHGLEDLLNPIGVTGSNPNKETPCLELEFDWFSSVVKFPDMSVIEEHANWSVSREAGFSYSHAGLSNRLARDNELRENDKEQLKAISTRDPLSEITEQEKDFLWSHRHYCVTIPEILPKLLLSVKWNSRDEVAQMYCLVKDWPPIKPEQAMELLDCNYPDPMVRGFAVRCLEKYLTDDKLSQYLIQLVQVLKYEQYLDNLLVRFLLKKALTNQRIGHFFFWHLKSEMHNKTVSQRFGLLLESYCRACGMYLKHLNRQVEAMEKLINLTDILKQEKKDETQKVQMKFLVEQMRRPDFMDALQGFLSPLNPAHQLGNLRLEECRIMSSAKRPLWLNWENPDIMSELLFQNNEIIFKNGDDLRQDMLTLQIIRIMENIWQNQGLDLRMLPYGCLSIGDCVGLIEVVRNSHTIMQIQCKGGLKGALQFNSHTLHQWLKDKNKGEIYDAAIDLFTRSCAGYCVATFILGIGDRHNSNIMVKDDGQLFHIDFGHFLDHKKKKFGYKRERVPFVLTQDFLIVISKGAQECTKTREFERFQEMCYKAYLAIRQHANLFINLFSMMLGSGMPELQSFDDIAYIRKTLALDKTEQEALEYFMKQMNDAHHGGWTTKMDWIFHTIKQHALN
Protocol: as §1, §2, §3

Human mTOR (FLAG-TOR) = biological target: T3, Human mTOR (FLAG-TOR) (Homo sapiens, UniProt P42345); assay: Human mTOR kinase assay with purified enzyme, DELFIA format; type: biochemical
T3 construct: FLAG
Protocol: Enzymes are first diluted in kinase assay buffer (10 mM HEPES (pH 7.4), 50 mM NaCl, 50 mM β-glycerophosphate, 10 mM MnCl2, 0.5 mM DTT, 0.25 mM microcystin LR, and 100 mg/mL BSA). To each well, 12 μL of the diluted enzyme is mixed briefly with 0.5 μL test inhibitor or control vehicle dimethylsulfoxide (DMSO). […] The reaction plate is incubated for 2 hours (linear at 1-6 hours) at room temperature with gentle shaking and then terminated by adding 25 μL Stop buffer (20 mM HEPES (pH 7.4), 20 mM EDTA, 20 mM EGTA). […] The DELFIA Assay buffer and Enhancement solution can be purchased from PerkinElmer. 45 μL of the terminated kinase reaction mixture is transferred to a MaxiSorp plate (Nunc) containing 55 μL PBS. The His6-S6K is allowed to attach for 2 hours after which the wells are aspirated and washed once with PBS. 100 μL of DELFIA Assay buffer with 40 ng/mL Eu—P(T389)-S6K antibody is added. The antibody binding is continued for 1 hour with gentle agitation. The wells are then aspirated and washed 4 times with PBS containing 0.05% Tween-20 (PBST). 100 μL of DELFIA Enhancement solution is added to each well and the plates are read in a PerkinElmer Victor model plate reader. Data obtained is used to calculate enzymatic activity and enzyme inhibition by potential inhibitors.

breast line MDA468 = assay: In vitro cell culture growth assay (MTS), MDA468; type: cell-based; conditions: Homo sapiens, 72 h, MDA468 cells, three days after drug treatment
Protocol: Human tumor cell lines used include prostate lines LNCap and PC3MM2, breast lines MDA468, MCF7, renal line HTB44 (A498), colon line HCT116, and ovarian line OVCAR3. Cells were plated in 96-well culture plates. One day following plating, the inhibitors were added to cells. Three days after drug treatment, viable cell densities were determined by metabolic conversion (by viable cells) of the dye MTS, a well-established cell proliferation assay. The assays were performed using an assay kit purchased from Promega Corp. (Madison, Wis.) following the protocol supplied with the kit. The MTS assay results were read in a 96-well plate reader by measuring absorbance at 490 nm. The effect of each treatment was calculated as percent of control growth relative to the vehicle-treated cells grown in the same culture plate.

[3] = PI3 Kinase γ isoform, fluorescence polarization
[4] = PI3 Kinase α isoform, fluorescence polarization
[5] = purified human mTOR enzyme, DELFIA format

| Molecule | IC50 (PI3K [1]; PI3 Kinase γ) | IC50 (PI3K [2]; PI3 Kinase α) | IC50 (Human mTOR (FLAG-TOR)) | IC50 (PI3K [1]; [3]) | IC50 (PI3K [2]; [4]) | IC50 (Human mTOR (FLAG-TOR); [5]) | IC50 (breast line MDA468) |
| --- | --- | --- | --- | --- | --- | --- | --- |
| O=C(Nc1ccncc1)Nc1ccc(-c2nc(N3CC4CCC(C3)O4)c3cnn(CC(F)(F)F)c3n2)cc1 [Example 5, 1-{4-[4-(8-oxa-3-azabicyclo[3.2.1]oct-3-yl)-1-(2,2,2-trifluoroethyl)-1H-pyrazolo[3,4-d]pyrimidin-6-yl]phenyl}-3-pyridin-4-ylurea] | 1030 nM | 168 nM | 0.19 nM |  |  |  |  |
| CNC(=O)Nc1ccc(-c2nc(N3CC4CCC(C3)O4)c3cnn(C4CCC5(CC4)OCCO5)c3n2)cc1 [Example 62, 1-{4-[1-(1,4-dioxaspiro[4.5]dec-8-yl)-4-(8-oxa-3-azabicyclo[3.2.1]oct-3-yl)-1H-pyrazolo[3,4-d]pyrimidin-6-yl]phenyl}-3-methylurea] | > 10000 nM | 2010 nM | 0.16 nM |  |  |  |  |
| CNC(=O)Nc1ccc(-c2nc(N3CC4CCC(C3)O4)c3cnn(C4CCC(=O)CC4)c3n2)cc1 [Example 63, 1-methyl-3-{4-[4-(8-oxa-3-azabicyclo[3.2.1]oct-3-yl)-1-(4-oxocyclohexyl)-1H-pyrazolo[3,4-d]pyrimidin-6-yl]phenyl}urea] | > 10000 nM |  | 0.23 nM |  |  |  |  |
| CNC(=O)Nc1ccc(-c2nc(N3CC4CCC(C3)O4)c3cnn(C4CCC(O)CC4)c3n2)cc1 (centres unmarked) [Example 64, 1-{4-[1-(4-hydroxycyclohexyl)-4-(8-oxa-3-azabicyclo[3.2.1]oct-3-yl)-1H-pyrazolo[3,4-d]pyrimidin-6-yl]phenyl}-3-methylurea] | 5000 nM | 1310 nM | 0.21 nM |  |  |  |  |
| CC(C)C(=O)N1CCC(n2ncc3c(N4CC5CCC(C4)O5)nc(-c4ccc(N)cc4)nc32)CC1 [Example 80, 4-[1-(1-isobutyrylpiperidin-4-yl)-4-(8-oxa-3-azabicyclo[3.2.1]oct-3-yl)-1H-pyrazolo[3,4-d]pyrimidin-6-yl]aniline] | > 10000 nM | > 10000 nM | 100 nM |  |  |  |  |
| O=C(Nc1ccncc1)Nc1ccc(-c2nc(N3CC4CCC(C3)O4)c3cnn(CC(F)(F)F)c3n2)cc1 [Example 104, 1-{4-[4-(8-oxa-3-azabicyclo[3.2.1]oct-3-yl)-1-(2,2,2-trifluoroethyl)-1H-pyrazolo[3,4-d]pyrimidin-6-yl]phenyl}-3-pyridin-4-ylurea] | 695 nM | 201 nM | 0.16 nM |  |  |  |  |
| CNC(=O)Nc1ccc(-c2nc(N3CC4CCC(C3)O4)c3cnn(C4CCC(O)CC4)c3n2)cc1 (centres unmarked) [Example 108, 1-(4-(4-(8-oxa-3-azabicyclo[3.2.1]octan-3-yl)-1-((1r,4r)-4-hydroxycyclohexyl)-1H-pyrazolo[3,4-d]pyrimidin-6-yl)phenyl)-3-methylurea] | > 10000 nM | 882 nM | 0.24 nM |  |  |  |  |
| CNC(=O)Nc1ccc(-c2nc(N3CC4CCC(C3)O4)c3cnn([C@H]4CC[C@@H](O)CC4)c3n2)cc1 [Example 109, 1-(4-(4-(8-oxa-3-azabicyclo[3.2.1]octan-3-yl)-1-((1s,4s)-4-hydroxycyclohexyl)-1H-pyrazolo[3,4-d]pyrimidin-6-yl)phenyl)-3-methylurea] | > 10000 nM | 227 nM | 0.3 nM |  |  |  |  |
| CCNC(=O)Nc1ccc(-c2nc(N3CC4CCC(C3)O4)c3cnn(C4CCC(OC)CC4)c3n2)cc1 (centres unmarked) [Example 301, 1-ethyl-3-{4-[1-(4-methoxycyclohexyl)-4-(8-oxa-3-azabicyclo[3.2.1]oct-3-yl)-1H-pyrazolo[3,4-d]pyrimidin-6-yl]phenyl}urea] |  |  |  | > 10000 nM | 2030 nM | 0.335 nM |  |
| CNC(=O)Nc1ccc(-c2nc(N3CC4CCC(C3)O4)c3cnn(C4CCC(N5CCN(C)CC5)CC4)c3n2)cc1 (centres unmarked) [Example 329, 1-methyl-3-(4-{1-[4-(4-methylpiperazin-1-yl)cyclohexyl]-4-(8-oxa-3-azabicyclo[3.2.1]oct-3-yl)-1H-pyrazolo[3,4-d]pyrimidin-6-yl}phenyl)urea] |  |  |  | 4350 nM | 357 nM | 1.75 nM |  |
| CCNC(=O)Nc1ccc(-c2nc(N3CC4CCC(C3)O4)c3sccc3n2)cc1 [Example 407, 1-ethyl-3-{4-[4-(8-oxa-3-azabicyclo[3.2.1]oct-3-yl)thieno[3,2-d]pyrimidin-2-yl]phenyl}urea] |  |  |  | > 10000 nM | 1260 nM | 0.76 nM | 250 nM |
| O=C(NCCO)Nc1ccc(-c2nc(N3CC4CCC(C3)O4)c3sccc3n2)cc1 [Example 409, 1-(2-hydroxyethyl)-3-{4-[4-(8-oxa-3-azabicyclo[3.2.1]oct-3-yl)thieno[3,2-d]pyrimidin-2-yl]phenyl}urea] |  |  |  | ≥ 10000 nM | 324 nM | 0.31 nM | 475 nM |
| O=C(Nc1ccccc1)Nc1ccc(-c2nc(N3CC4CCC(C3)O4)c3sccc3n2)cc1 [Example 411, 1-{4-[4-(8-oxa-3-azabicyclo[3.2.1]oct-3-yl)thieno[3,2-d]pyrimidin-2-yl]phenyl}-3-phenylurea] |  |  |  | 2190 nM | 82 nM | 1.3 nM | 380 nM |
| Nc1ccc(-c2nc(N3CC4CCC(C3)O4)c3sccc3n2)cc1 [Example 414, 4-[4-(8-oxa-3-azabicyclo[3.2.1]oct-3-yl)thieno[3,2-d]pyrimidin-2-yl]aniline] |  |  |  | > 10000 nM |  | 100 nM | 30000 nM |
| Oc1cccc(-c2nc(N3CC4CCC(C3)O4)c3sccc3n2)c1 [Example 417, 3-[4-(8-oxa-3-azabicyclo[3.2.1]oct-3-yl)thieno[3,2-d]pyrimidin-2-yl]phenol] |  |  |  | > 10000 nM | 399 nM | 61 nM | 7800 nM |
| Oc1ccc(-c2nc(N3CC4CCC(C3)O4)c3sccc3n2)cc1 [Example 418, 4-[4-(8-oxa-3-azabicyclo[3.2.1]oct-3-yl)thieno[3,2-d]pyrimidin-2-yl]phenol] |  |  |  | > 10000 nM | 6270 nM | 34 nM | 17000 nM |
| CNC(=O)Nc1ccc(-c2nc(N3CC4CCC(C3)O4)c3sc(CN4CCN(C)CC4)cc3n2)cc1 [Example 423, 1-methyl-3-(4-{6-[(4-methylpiperazin-1-yl)methyl]-4-(8-oxa-3-azabicyclo[3.2.1]oct-3-yl)thieno[3,2-d]pyrimidin-2-yl}phenyl)urea] |  |  |  | 5720 nM | 322 nM | 19.5 nM | 1000 nM |
| N-{4-[({4-[1-methyl-4-(8-oxa-3-azabicyclo[3.2.1]oct-3-yl)-1H-pyrazolo[3,4-d]pyrimidin-6-yl]phenyl}carbamoyl)amino]phenyl}acetamide [Example 259] | 2720 nM | 1050 nM | 2.4 nM |  |  |  |  |
| N~2~,N~2~-dimethyl-N-{4-[({4-[1-methyl-4-(8-oxa-3-azabicyclo[3.2.1]oct-3-yl)-1H-pyrazolo[3,4-d]pyrimidin-6-yl]phenyl}carbamoyl)amino]phenyl}glycinamide [Example 258] | 1410 nM | 346 nM | 3.95 nM |  |  |  |  |
